In brackets after ≈: the same amount, converted by molar mass. Like-named read-outs stand apart in the source and are kept apart here.
Tests used:
[1] = tested on: southern corn rootworm, Diabrotica undecimpunctata howardi; conditions: for foliar systemic nonagressive Method B crw % control at 0.56 kg/ha (0.5 lb/acre): percent control relative to infested check, from root damage ratings, 14 days post-spraying; for pest or weed control at 560 g/ha: Diabrotica undecimpunctata, in Zea mays, foliar, 336 h, read-out: foliar systemic nonagressive Method B crw % control at 0.56 kg/ha (0.5 lb/acre)
Boll Weevil [2] = assay: Biological Method D: Foliar Insecticidal Activity Test, boll weevil test; assay type: in vivo, Anthonomous grandis; conditions: Method D foliar test, Boll Weevil
Mexican Bean Beetle = assay: Biological Method D: Foliar Insecticidal Activity Test, Mexican Bean Beetle test; assay type: in vivo, Epilachna varivestis; conditions: Epilachna varivestis, Method D foliar test, Mexican Bean Beetle
[3] = tested on: southern corn rootworm, Diabrotica undecimpunctata howardi; assay: Biological Method A: Corn Rootworm Screening Test (treated non-aggressive soil); conditions: soil concentration giving 90% mortality, 10 days at 27°C
[4] = tested on: southern corn rootworm, Diabrotica undecimpunctata howardi; conditions: at-planting soil application
Southern Armyworm = assay: Biological Method D: Foliar Insecticidal Activity Test, Southern Armyworm test; assay type: in vivo, Spodoptera eridania; parameters: key: I = inactive at concentration listed
Boll Weevil [5] = assay: Biological Method D: Foliar Insecticidal Activity Test, boll weevil test; assay type: in vivo, Anthonomous grandis; parameters: key: I = inactive at concentration listed
Two-Spotted Spider Mite = assay: Biological Method D: Foliar Insecticidal Activity Test, mite test; assay type: in vivo, Tetranychus urticae; parameters: key to LC50 TSM: I = inactive at concentration listed; conditions: Method D foliar test, Two-Spotted Spider Mite; for LC50: Tetranychus urticae, read-out: LC50 TSM
Green Peach Aphid = assay: Biological Method D: Foliar Insecticidal Activity Test, aphid test; assay type: in vivo, Myzus persicae; parameters: key: I = inactive at concentration listed
[6] = 48 hrs, read-out: LC50 BB 48 hrs.
[7] = 96 hrs, read-out: LC50 BB 96 hrs

Compound | foliar systemic nonagressive Method B crw % control at 0.56 kg/ha (0.5 lb/acre) [1] [%] | LC50 BW 96 hrs (Boll Weevil [2]) [ppm] | LC50 (Mexican Bean Beetle; [6]) [µg/mL] | LC50 (Mexican Bean Beetle; [7]) [µg/mL] | primary nonagressive Method A crw LC90 [3] [ppm] | secondary aggressive Method C crw LC50 ([4]; rated 17 days post-infestation) [kg/ha] | secondary aggressive Method C crw LC50 ([4]; value in brackets) [lb/acre] | LC50 AW 48 hrs (Southern Armyworm) | LC50 AW 96 hrs (Southern Armyworm) | LC50 BW 48 hrs (Boll Weevil [5]) | LC50 (Two-Spotted Spider Mite) [µg/mL] | LC50 GPA (Green Peach Aphid) | LC50 BW 96 hrs (Boll Weevil [5]) | pest or weed control at 560 g/ha [1] [%] | LC50 TSM (Two-Spotted Spider Mite) | LC50 BW 48 hrs (Boll Weevil [2]; 48 hrs) [ppm]
CCOP(=S)(NNP(=S)(OCC)OC(C)CC)OCC (stereo not shown) [Compound 8] | 53 | 740 | 500 (≈ 1370 µM) | 84 (≈ 231 µM) | <0.1 | 0.81 | 0.72 | I | I | I | 335 (≈ 919 µM) | I | – | – | – | –
CCOP(=S)(NNP(=S)(OC(C)C)OC(C)C)OCC [Compound 9, reference compound] | 64 | – | 300 (≈ 823 µM) | 150 (≈ 412 µM) | 0.41 | 1.1 | 0.98 | I | I | I | 76 (≈ 209 µM) | I | I | – | – | –
CCCOP(=S)(NNP(=S)(OCCC)OCCC)OCCC [Compound 14, reference compound] | – | – | 500 (≈ 1270 µM) | 52 (≈ 132 µM) | 0.39 | 1.12 | 1.0 | I | I | I | – | I | I | 46 | I | –
CCCOP(=S)(NNP(=S)(OC(C)C)OC(C)C)OCCC [Compound 16, reference compound] | – | – | 150 (≈ 382 µM) | 62 (≈ 158 µM) | 0.95 | 1.03 | 0.92 | I | I | I | – | I | I | 46 | I | –
CCCCOP(=S)(NNP(=S)(OCCC)OCCC)OCC (stereo not shown) [Compound 17] | – | – | 150 (≈ 382 µM) | 62 (≈ 158 µM) | 1.1 | 1.02 | 0.91 | I | I | I | – | I | I | 38 | I | –
CCCOP(=S)(NNP(=S)(OCC)OCC(C)C)OCCC (stereo not shown) [Compound 18, N-(O,O-dipropylthiophosphoryl) N′-(O-ethyl O-isobutylthiophosphoryl) hydrazine] | – | – | 150 (≈ 382 µM) | 78 (≈ 199 µM) | <0.1 | 0.36 | 0.32 | I | I | I | – | I | I | 61 | I | –
CCCOP(=S)(NNP(=S)(OCC)OC(C)CC)OCCC (stereo not shown) [Compound 19, N-(O,O-dipropylthiophosphoryl) N′-(O-ethyl O-secbutylthiophosphoryl) hydrazine] | – | – | 78 (≈ 199 µM) | 62 (≈ 158 µM) | <0.1 | 0.28 | 0.25 | I | I | I | – | I | I | 54 | I | –
CCOP(=S)(NNP(=S)(OCC)SC(C)C)OCC (stereo not shown) [Compound 20] | 50 | – | 110 (≈ 300 µM) | 52 (≈ 142 µM) | 0.40 | 1.01 | 0.90 | I | I | I | – | I | I | – | I | –
CCCNP(=S)(NNP(=S)(OCC)OCC)OCC (stereo not shown) [Compound 24] | 38 | 380 | 27 (≈ 77.3 µM) | 31 (≈ 88.7 µM) | 1.1 | – | – | I | I | I | – | I | – | – | I | –
CCOP(=S)(NNP(=S)(OCC)OCC(C)(C)C)OCC (stereo not shown) [Compound 38, N-(O,O-diethylthiophosphoryl) N′-(O-ethyl O-neopentylthiophosphoryl) hydrazine] | – | 740 | 60 (≈ 159 µM) | 60 (≈ 159 µM) | 0.07 | 0.5 | 0.45 | I | I | – | 150 (≈ 396 µM) | I | – | 46 | – | 740
